Measurements taken from paper PMC11793105, “A kalihinol analog disrupts apicoplast function and vesicular trafficking in P. falciparum malaria” (Science (New York, N.Y.), 2024).
“And” between values parts separate entries of the source, which are not always exact repeats. Equal values may be shown once. Read-outs that look alike come from different tables or passages of the source.

What was measured:
[1] = Tolerability study and toxicological profile; type: in vivo, Male CD1 mouse; settings: for adverse effects (Functional Observational Battery): oral
Method: Tolerability studies used Male CD1 (20-22 g Envigo).
Blood samples for analysis were carried out in the Abacus5 junior Vet (Practice CVM S.L.L). Clinical chemistry was performed by mean analysis of whole blood in Vetscan (ABAXIS) and F560 (Menarini) analyzer and by mean analysis of plasma.
Tolerability study Male CD1 (20-22g Envigo) were used in tolerability studies.
All animal studies were ethically reviewed and carried out in accordance with European Directive
(Rehofix MK2000, 1.7-2.2 mm particle size) and carry filters covers. Animal maintenance
standard g-irradiated standard rodent diet (Envigo Teklad 2914) and ultra-filtered water was
adjusted to 12h of light (300 lux) and 12h darkness daily. The temperature range was 22± 2 °C.
Relative humidity was 55% ± 10 and the air room was changed 15-20 times per hour.
Environmental enrichment included nesting material (nesting cups, LBS), a red-tinted igloo
(Datesand), a hanging clear tunnel (Datesand, and two wood blocks (Datensand).
Protocol design Male CD1 mouse (n=1) was dosed with an initial dose at 100 mg/kg (1-day, oral
route, once a day, 10ml/kg). The animals were observed during the first four hours after
administration and after 24h. The neurobehavioral assessment Functional Observational Battery
the modified symptom-based Up-&-Down method and adjusted a constant factor (1.6). Other male
(100mg/kg and 63.4 mg/kg) and vehicle group with 1% Methylcellulose + 0.5% Tween (n=2) were
dosed. Systemic exposure levels at different times were taken (0.5h, 2h, 4h, 8, 24, 48h) of treated
animals (n=3 per group) and a toxicological profile was performed after 7 days of treatment
scheduling sampling, blood samples of 15 uL were taken from lateral tail vein and recovered in a
vial with the same quantity of water, mix and freeze until bioanalytical quantification for the
Toxicological Profile The bodyweight of animals was recorded before dosage, 24 hours after and
every day in animals kept for 7 days. Any sign of toxicity was recorded for 4h and 24h hours after
drug administration (Functional Observational Battery). All animals were sacrificed by CO2
inhalation. Blood samples for analysis were then taken by intracardiac puncture and fractionated
to blood recount and serum analysis. The blood recount was carried out in the Abacus5 junior Vet
→ (Practice CVM S.L.L). Clinical chemistry was performed by mean analysis of whole blood in
Vetscan→ (ABAXIS) & F560 (Menarini→) analyzer and by mean analysis of plasma, obtained
after centrifugation at 1800g rpm for 10 min in S-Microvette tubes (Sarstedt→) with Heparin-
Lithium. The plasma parameters tested were: glucose, ALP, AST, ALT, GGT, LDH, AMY, CK
Calcium, Phosphate, Sodium, Potassium, total bilirrubin, total protein, albumin, blood ureic
nitrogen (BUN), creatinine, triglycerides, cholesterol. After necropsy, several organs (liver,
kidney, spleen, Caecum, and stomach) were removed and weighed. Liver, kidney, and spleen were
fixed in formalin (formaldehyde 10%) to further histopathology study (Hematoxilin/Eosin stain).

P. falciparum cultures = assay: Exponential killing rate at IC80; type: cell-based, Plasmodium falciparum; settings: triplicate
[2] = Pharmacokinetic profile at 25 and 50 mg/Kg (Table S9b); type: in vivo, Male CD1 mouse; settings: for Cmax: oral, blood; for AUC(0-inf): read-out: AUCINF_obs
Method: An Acquity ultra-performance liquid chromatography (UPLC) system (Waters Corp., Milford, MA, USA) couple to a triple quadrupole mass spectrometer (API 4000, AB Sciex, Foster City, CA, USA) was used for the analysis ([99]).
Blood concentration time data were analyzed by Non-Compartmental PK analysis using Phoenix WinNonlin software (Certara, NY, US) to calculate PK parameters. […]
were housed in cages (Tecniplast®). The cages contained autoclaved dust free corncob bedding […]
provided ad libitum. Environmental conditions: Photoperiods, simulated dawn/dusk facility, were […]
The temperature range was 22± 2 °C. […]
route, once a day, 10ml/kg). […]
Two mice were treated at 50
To confirm the data, 3 animals per dose
(hematology, clinical chemistry, and necropsy). Additionally in the same animals with the same […]
determination of blood level exposures and pharmacokinetic analysis. […]
Peripheral blood […]
samples (15 µL) were taken at frequent intervals, mixed with 30 µL of H2O milli Q and immediately frozen on dry ice. The frozen samples were stored at −80 °C until analysis. Vehicle-treated mice experienced the same blood-sampling regimen (table S9, S10).
Bioanalysis and pharmacokinetics analysis: LC-MS
Bioanalysis of in vivo samples: Sample pretreatment Before the analysis 15ul of blood samples were defrost at ambient temperature and mixture with 200ul of ACN:MeOH (80:20). After protein precipitation samples were filtered by 0.45um filter plate (Multiscreen Solvinert 0.45um FTPE, Millipore). The 2ul TFA (Trifluoroacetic acid, sigmaAldrich) were added to each filtered sample in order to derivatize the compound to formamide analogue. This process occurs spontaneously.
LC-MS analysis An Acquity Ultra-Performance liquid chromatography (UPLC) system (Waters Corp., Milford, MA, USA) couple to a triple quadrupole mass spectrometer (API 4000™, AB Sciex, Foster City, CA, USA) was used for the analysis. The MS/MS transition was 311.340 / […]
The chromatographic separation was carried out at 0.4ml/min in a Acquity UPLC™ BEH C18 column (50x2.1 mm i.d., […]; Waters Corp.) at 40 °C with Acetonitrile (sigmaAldrich) and 0.1% formic acid as eluents.
Pharmacokinetic analysis Blood concentration time data were analyzed by Non-Compartmental PK analysis using Phoenix WinNonlin software (Certara NY, US) to calculate PK parameters. The maximum observed concentration (Cmax) and the time to reach it (Tmax), were determined. The area under concentration-time curve from dosing at time zero to the last measured concentration […]
time (AUClast) and the total area under concentration-time curve from time zero extrapolated to infinity (AUCinf), were calculated using a linear trapezoidal rule. […]

THP1 = assay: Human cell line activity, THP1; type: cell-based; settings: THP-1, read-out: IC50 (µM) THP1
[3] = male, CD1, mouse, whole blood, po, 25 mg/kg, Mean
[4] = male, CD1, mouse, whole blood, po, 50 mg/kg, Mean
[5] = male, CD1, mouse, whole blood, po, 50 mg/kg, individual mice

With `[C-]#[N+][C@]1(C)CC[C@H]2[C@@H]([C@@H](C(C)C)CC[C@]2(C)[N+]#[C-])[C@H]1O` [MED6-189] the “adverse effects (Functional Observational Battery)” value (“adverse effects” below) ([1]; 50 mg/kg, two mice) was “didn´t show adverse effects”, the “adverse effects” value ([1]; 62.5mg/kg, one mouse) was “showed adverse effects” and the “adverse effects” value ([1]; 100 mg/kg, once, n=1) was “Adverse effects were found”. The adverse events ([1]; doses up to 50 mg/kg) was “did not exhibit any adverse events”, the “hematology, clinical chemistry, necropsy” value ([1]; doses up to 50 mg/kg) was “no significant changes” and the “Exponential killing rate k = (1/t)* log10(N0/Nt)” value (P. falciparum cultures; at IC80, 48 HPS) was 0.008801. For the same molecule, the “Exponential killing rate k = (1/t)* log10(N0/Nt)” value (P. falciparum cultures; at IC80, 72 HPS) was 0.007941, the “Exponential killing rate k = (1/t)* log10(N0/Nt)” value (P. falciparum cultures; at IC80, 100 HPS) was 0.0183 and the AUCINF_D_obs ([2]; 25 mg/Kg, Mean) was 1505 kg·ng·h/mL/mg. It also gave an AUC_%Extrap_obs ([2]; 25 mg/Kg, Mean) of 0.955%, an AUClast_D ([2]; 25 mg/Kg, Mean) of 1491.7 kg·ng·h/mL/mg and a Cmax_D ([2]; 25 mg/Kg, Mean) of 188.6 kg·ng/mL/mg. The HL_Lambda_z ([2]; 25 mg/Kg, Mean) was 3.711 h, the AUCINF_D_obs ([2]; 25 mg/Kg, individual mice) was 2105.77 kg·ng·h/mL/mg and 904.22 kg·ng·h/mL/mg and the AUCINF_obs ([2]; 25 mg/Kg, individual mice) was 52644.4 ng·h/mL and 22605.6 ng·h/mL. The AUC_%Extrap_obs ([2]; 25 mg/Kg, individual mice) was 0.78% and 1.13%, the AUClast ([2]; 25 mg/Kg, individual mice) was 52232.7 ng·h/mL and 22350.5 ng·h/mL and the AUClast_D ([2]; 25 mg/Kg, individual mice) was 2089.31 kg·ng·h/mL/mg and 894.02 kg·ng·h/mL/mg. The Cmax_D ([2]; 25 mg/Kg, individual mice) was 232.4 kg·ng/mL/mg and 144.8 kg·ng/mL/mg, the HL_Lambda_z ([2]; 25 mg/Kg, individual mice) was 3.31 h and 4.11 h and the Cmax ([2]; 25 mg/Kg, individual mice 1 and 2) was 3620 ng/mL. For the same molecule, the AUCINF_D_obs ([2]; 50 mg/Kg, Mean) was 2099.8 kg·ng·h/mL/mg, the AUC_%Extrap_obs ([2]; 50 mg/Kg, Mean) was 4.415% and the AUClast_D ([2]; 50 mg/Kg, Mean) was 2014.32 kg·ng·h/mL/mg. The Cmax_D ([2]; 50 mg/Kg, Mean) was 158.4 kg·ng/mL/mg, the HL_Lambda_z ([2]; 50 mg/Kg, Mean) was 4.536 h and the AUCINF_D_obs ([2]; 50 mg/Kg, individual mice) was 1882 kg·ng·h/mL/mg and 2317.54 kg·ng·h/mL/mg. For the same molecule, the AUCINF_obs ([2]; 50 mg/Kg, individual mice) was 115877 ng·h/mL, the AUC_%Extrap_obs ([2]; 50 mg/Kg, individual mice) was 7.74% and 1.09% and the AUClast ([2]; 50 mg/Kg, individual mice) was 114617 ng·h/mL. For the same molecule, the AUClast_D ([2]; 50 mg/Kg, individual mice) was 1736.3 kg·ng·h/mL/mg and 2292.34 kg·ng·h/mL/mg, the Cmax_D ([2]; 50 mg/Kg, individual mice) was 137.2 kg·ng/mL/mg and 179.6 kg·ng/mL/mg and the HL_Lambda_z ([2]; 50 mg/Kg, individual mice) was 5.74 h and 3.33 h. It also gave a Cmax ([2]; 50 mg/Kg, individual mice 1 and 2) of 8980 ng/mL, an AUC(0-t) [2, 3] of 37300 ng·h/mL and an AUC(0-inf) [2, 3] of 37600 ng·h/mL. It also gave a Cmax ([2]; male, CD1, mouse, whole blood, po, 25 mg/kg, Mean of 2 mice, read-out: Cmax) of 4720 ng/mL, a Cmax ([2]; male, CD1, mouse, whole blood, po, 25 mg/kg, individual mice 1 and 2, read-out: Cmax) of 5810 ng/mL and an AUC(0-t) [2, 4] of 101000 ng·h/mL. For the same molecule, the AUC(0-inf) [2, 4] was 105000 ng·h/mL, the AUC(0-t) [2, 5] was 86800 ng·h/mL and the AUC(0-inf) [2, 5] was 94100 ng·h/mL. For the same molecule, the Cmax ([2]; male, CD1, mouse, whole blood, po, 50 mg/kg, Mean of 2 mice, read-out: Cmax) was 7920 ng/mL, the Cmax ([2]; male, CD1, mouse, whole blood, po, 50 mg/kg, individual mice 1 and 2, read-out: Cmax) was 6860 ng/mL and the Tmax ([2]; male, CD1, mouse, whole blood, po, 25 mg/Kg, individual mice) was 4 h. The Tmax ([2]; male, CD1, mouse, whole blood, po, 50 mg/Kg, individual mice) was 7 h and the IC50 (THP1) was 12 µM.
